Measurements as given in patent US6630495B1, “Fungicides” (priority 1999, dated 2003).

melting point [°C]	Compound
166	CC(C#N)(NC(=O)c1c(Cl)cccc1Cl)c1ncc(C(F)(F)F)cc1Cl (centres unmarked) [Compound 110, N-[1-(3-Chloro-5-trifluoromethyl-2-pyridyl)-1-cyanoethyl]-2,6-dichlorobenzamide]
122 to 126	O=[N+]([O-])c1ccccc1CC(=NO)NCc1ncc(C(F)(F)F)cc1Cl
